According to US8778954B2, “Phenylpyridine derivative and medicinal agent comprising same” (Kowa Company, Ltd., priority 2009, dated 2014):

How the values were obtained:
[1] = target: T1, angiotensin II type 1 receptor (Oryctolagus cuniculus, UniProt P34976); test: Angiotensin II receptor antagonistic activity in isolated rabbit blood vessels (thoracic aorta ring, angiotensin II-induced contraction); type: cell-based; conditions: 0.1 μM test compound, angiotensin II (10 nM)-induced contraction, read-out: Angiotensin II activity inhibitiom rate (%) at 0.1 μM concentration
T1 construct: By using a specimen of isolated rabbit blood vessels; from tissue; host or cells: rabbit (New Zealand White) thoracic aorta ring
T1 sequence (P34976 1-359): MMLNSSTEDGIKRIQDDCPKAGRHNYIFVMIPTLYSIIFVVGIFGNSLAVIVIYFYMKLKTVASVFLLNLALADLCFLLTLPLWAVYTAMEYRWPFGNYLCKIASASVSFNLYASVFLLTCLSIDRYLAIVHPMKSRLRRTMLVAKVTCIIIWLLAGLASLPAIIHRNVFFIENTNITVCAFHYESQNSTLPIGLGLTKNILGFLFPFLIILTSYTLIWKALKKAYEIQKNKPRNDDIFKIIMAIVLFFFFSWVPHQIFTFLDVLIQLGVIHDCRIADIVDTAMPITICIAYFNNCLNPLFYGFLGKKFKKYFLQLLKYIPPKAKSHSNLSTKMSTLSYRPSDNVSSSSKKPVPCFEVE
Procedure: By using a specimen of isolated rabbit blood vessels, antagonistic activity of the compounds of the invention against angiotensin II type 1 receptor was estimated from a dose-response curve of angiotensin II-induced blood vessel contraction. Specifically, the specimen of thoracic aorta ring of a rabbit (New Zealand White: male, 2.4 to 3.0 kg) was suspended in a magnus bath filled with Krebs-Henseleite buffer (composition: 118 mM NaCl, 4.7 mM KCl, 2.55 mM CaCl2, 1.18 mM MgSO4, 1.18 mM KH2PO4, 24.88 mM NaHCO3, and 11.1 mM D-glucose), and angiotensin II (10 nM)-induced contraction was obtained in the presence of the compounds of each test (1 nmol/L to 10 μmol/L). During the measurement, the inside temperature of the magnus bath was maintained at 37° C. and the bath was continuously ventilated with a sufficient amount of mixed gas (95% O2 and 5% CO2). The angiotensin II-induced contraction was converted into a relative value (%) that is based on the angiotensin II (0.1 μM)-induced contraction in the absence of the compounds of each example.

human PPARγ2 = target: T2, human PPARγ2 (Homo sapiens, UniProt P37231); test: PPARγ activation activity, Gal4-PPARγ2 LBD luciferase transfection assay using COS7 cells; type: cell-based; conditions: Gal4-human PPARγ2 LBD chimera, 16 hours, rosiglitazone = 100%
T2 construct: the amino acids 182 to 505 of human PPARγ2; expressed in transfected cells; host or cells: COS7 cells (African green monkey kidney)
T2 sequence (P37231 182-505): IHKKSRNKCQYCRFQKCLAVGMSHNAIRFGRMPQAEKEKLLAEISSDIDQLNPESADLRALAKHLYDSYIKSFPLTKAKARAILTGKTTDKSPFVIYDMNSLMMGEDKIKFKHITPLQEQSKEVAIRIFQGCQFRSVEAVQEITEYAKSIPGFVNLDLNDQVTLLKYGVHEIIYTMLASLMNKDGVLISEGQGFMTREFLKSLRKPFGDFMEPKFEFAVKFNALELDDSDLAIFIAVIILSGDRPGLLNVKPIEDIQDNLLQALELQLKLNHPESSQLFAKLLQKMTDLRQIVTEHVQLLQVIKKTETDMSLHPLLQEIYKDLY
Procedure: The agonistic activity of the compounds of the invention on PPARγ was measured based on the transfection assay using COS7 cells (DS Pharma Biomedical Co., Ltd., Osaka, Japan), which are the cell line derived from the kidney of the African green monkey. COS7 cells were cultured under 5% CO2 concentration, and DMEM medium containing 10% fetal bovine serum, glutamic acid, and antibiotics was used as a medium.
As an expression vector, a chimera in which DNA binding domain of Gal4, which is a yeast transcription factor, and ligand binding domain of human PPARγ2 are fused, i.e., a fused product between the amino acids 1 to 147 of Gal4 transcription factor and the amino acids 182 to 505 of human PPARγ2, was used. Furthermore, as a reporter vector, a firefly luciferase containing five copies of Gal4 recognition sequence in the promoter region was used. Plasmid transfection to the cells was performed according to a method which uses jetPEI (trade name, manufactured by Funakoshi Co., Ltd., Tokyo, Japan). Furthermore, β-galactosidase expression vector was employed as an internal standard.
After the transfection of the cells, the medium was replaced with a DMEM medium (containing 1% serum) added with the test compound, and the cells were further cultured for 16 hours. After that, the luciferase activity and β-galactosidase activity in the cell lysis solution were measured.
For the present test, dimethyl sulfoxide (DMSO) was used for dissolution and dilution of the test compounds, and during the cell treatment, the DMSO concentration in DMEM medium (containing 1% serum) was adjusted to 0.1%. As a positive compound, rosiglitazone (trade name, manufactured by ALEXIS Corporation, Switzerland) was used. The luciferase activity (%) of the test compounds (1 to 30 μmol/L) was calculated when the luciferase activity of rosiglitazone (3 to 10 μmol/L) is 100% and the luciferase activity in the absence of the test compound is 0%. The 50% effective concentration of the test compound (EC50, 50% effect concentration) was calculated by using SAS Preclinical Package Ver 5.0 (trade name, manufactured by SAS institute Japan Co., Tokyo, Japan), which is a statistical analysis program.
EC50 values of these compounds are described in Table 2. […] Under the same condition, the PPARγ activation activity of telmisartan, i.e., EC50, was 1 to 5 μM.

[2] = test system: spontaneously hypertensive rats (SHR); test: Hypotensive activity with tail cuff method in spontaneously hypertensive rats; type: in vivo, rat; conditions: 3 and 10 mg/kg orally once a day for 7 days, 4, 24 and 72 hours after final administration, FIG. 1
Procedure: By using 19-week old spontaneously hypertensive rats (SHR), the body weight and the systolic blood pressure (SBP) of each rat were measured before administration of the medicine, and group separation was performed by blocking assignment so that there was no variation of these values between respective groups. Solvent control (0.5% methyl cellulose solution, MC), 3 mg/kg telmisartan, 3 and 10 mg/kg of the compound of Example 21, and 3 and 10 mg/kg of the compound of Example 23 were orally administered iteratively for 7 days, once a day. The blood pressure and the heart beat rate were measured with tail cuff method at 4, 24, and 72 hours after the administration of the final administration day. Specifically, the rat was put into a cylindrical positioner, maintained at 37° C., and the blood pressure and the heart beat rate were measured from the tail of the rat during the resting state using a non-invasive blood pressure meter (trade name: BP-98A, manufactured by Softron Co., Ltd., Tokyo, Japan). The blood pressure and the heart beat rate were measured for each individual three times or more in a row. When the difference of the systolic blood pressures between the consecutive measurement values was 5 mmHg or less, the average values of these measurement values were taken as data, except for the first measurement. […]

Compound | inhibition at 0.1 µM [1] | EC50 (human PPARγ2) | blood pressure lowering activity (change in systolic blood pressure from pre-administration) [2]
CCCCc1nc(C(C)C)n(-c2ncc(OCC)cn2)c(=O)c1Cc1ccc(-c2ccccc2-c2noc(=O)[nH]2)nc1 [Example 21, 3-{2-{5-{[4-butyl-1-(5-ethoxypyrimidin-2-yl)-2-isopropyl-6-oxo-1,6-dihydropyrimidin-5-yl]methyl}pyridin-2-yl}phenyl}-1,2,4-oxadiazol-5(4H)-one] | 70.3% | 450 nM | potent blood pressure lowering activity dose-dependently that was equivalent or more to telmisartan
CCCCc1nc(C2CC2)n(-c2ncc(OCC)cn2)c(=O)c1Cc1ccc(-c2ccccc2-c2noc(=O)[nH]2)nc1 [Example 23, 3-{2-{5-{[4-butyl-2-cyclopropyl-1-(5-ethoxypyrimidin-2-yl)-6-oxo-1,6-dihydropyrimidin-5-yl]methyl}pyridin-2-yl}phenyl}-1,2,4-oxadiazol-5(4H)-one] | 75.2% | 760 nM | potent blood pressure lowering activity dose-dependently that was equivalent or more to telmisartan
